In one test the target is T1, PKMYT1 (Homo sapiens, UniProt Q99640).
T1 construct: PKMYT1 (93 kD, full length, N-terminal GST tag from Signal Chem); GST (N); purchased Signal Chem
T1 sequence (Q99640 1-499): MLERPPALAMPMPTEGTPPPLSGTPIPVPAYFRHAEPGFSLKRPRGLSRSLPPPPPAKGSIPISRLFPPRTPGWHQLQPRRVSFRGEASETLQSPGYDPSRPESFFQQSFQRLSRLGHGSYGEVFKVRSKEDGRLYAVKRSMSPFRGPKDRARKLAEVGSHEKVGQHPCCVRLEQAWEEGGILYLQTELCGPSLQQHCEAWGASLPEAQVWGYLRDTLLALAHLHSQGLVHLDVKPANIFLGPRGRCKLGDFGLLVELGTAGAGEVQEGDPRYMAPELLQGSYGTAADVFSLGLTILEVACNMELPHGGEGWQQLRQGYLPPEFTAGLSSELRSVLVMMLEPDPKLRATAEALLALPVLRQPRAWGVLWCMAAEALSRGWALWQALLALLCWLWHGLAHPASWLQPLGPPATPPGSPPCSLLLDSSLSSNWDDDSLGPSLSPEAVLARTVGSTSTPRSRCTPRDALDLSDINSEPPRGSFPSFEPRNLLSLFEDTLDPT
Description: ADP-Glo PKMYT1 ATP-depletion assay. The conditions noted are these: 50 nM PKMYT1, 13.3 nM CDK1, read-out: Biochemical IC50. The method in brief:
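Full-length N-terminal GST-tagged PKMYT1 (50 nM) with GST-CDK1 (13.3 nM) as substrate and 88 µM ATP, in Hepes buffer with MgCl2, MnCl2, DTT and BSA; DMSO <1%. Incubated 120 min at RT. ADP formed was quantified by ADP-Glo luminescence and used to derive biochemical IC50.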
On the technique in general: ADP-Glo turns the ADP formed in a reaction into a luminescent signal.

The subject of test [1] is phosphorylation of CDK1 at Thr14 in HCC1806 cells. Description: Cell lysate AlphaLISA assay measuring inhibition of phosphorylation of CDK1 Thr14. It counts as cell-based. To be noted: read-out: Cellular IC50. In outline: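 HCC1806 cells seeded overnight, then treated 4 h at 37 °C, 5% CO2 with compounds in DMSO; washed and lysed, lysates frozen overnight at −80 °C. CDK1 Thr14 phosphorylation read by AlphaLISA SureFire Ultra; data normalized to DMSO (0% inhibition) and 3 μM reference compound to give IC50.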
Background: Bead proximity is the source of the signal in Alpha formats.

The structures appear in SMILES notation. Like-named read-outs stand apart in the source and are kept apart here.

Usually IC50 stands for the point on the concentration scale where inhibition reaches its midpoint.

On to `NC(=O)c1cc2nccnc2c(-c2c(Cl)ccc3[nH]ncc23)c1N` (atropisomer, axis not shown) [Compound 247], for which the IC50 on PKMYT1 is 1000 to 5000 nM; in test [1] (4 hours), at least 5000 nM.

On to `Cc1ccc(O)c(C)c1-c1cc(C(N)=O)cc2nccnc12` [Compound 74, 8-(3-Hydroxy-2,6-dimethyl-phenyl)quinoxaline-6-carboxamide], for which the half-inhibitory concentration (IC50) was 500 to 1000 nM on PKMYT1 and at least 5000 nM in test [1] (Homo sapiens, HCC1806, 4 h).

Consider `Cc1c(O)cccc1-c1c(N)c(C(N)=O)cc2nc(C(F)(F)F)cnc12` [Compound 96, 7-Amino-8-(3-hydroxy-2-methylphenyl)-3-(trifluoromethyl)quinoxaline-6-carboxamide], for which the IC50 at PKMYT1 was in the range of 50 to 500 nM; in test [1] (4 hours), 1000 to 5000 nM.

Regarding `Cc1c(O)cccc1-c1c(N)c(C(N)=O)cc2nc(C(F)(F)F)c(O)nc12` [Compound 133], the IC50 on PKMYT1 was in the range of 50 to 500 nM; in test [1] (4 hours), 1000 to 5000 nM.

As to `CCn1ccc2cc(C(N)=O)c(N)c(-c3cccc(O)c3C)c2c1=O` (atropisomer, axis not shown) [Compound 329], the IC50 was under 50 nM on PKMYT1 and 50 to 500 nM in test [1] (4 hours).

For the molecule `Cc1cc(O)cc(C)c1-c1cc(C(N)=O)nc2ccccc12` [Compound 130], the IC50 at PKMYT1 is at least 5000 nM; in test [1] (Homo sapiens, HCC1806, 4 h), at least 5000 nM.

As to `Cc1ccc(O)c(C)c1-c1c(N)c(C(N)=O)nc2ccc(F)cc12` (atropisomer, axis not shown; (M)) [Compound 23, (M)-3-Amino-6-fluoro-4-(3-hydroxy-2,6-dimethylphenyl) quinoline-2-carboxamide], the values for the IC50 (on PKMYT1; in test [1] (4 hours)) were 50 to 500 nM and 1000 to 5000 nM, respectively.

Regarding `Cc1c(O)cccc1-c1c(N)c(C(N)=O)nc2cccc(C#N)c12` (atropisomer, axis not shown) [Compound 242], the IC50 (at PKMYT1; in test [1] (4 hours)) was under 50 nM throughout.

In the case of `Cc1ccc(O)c(C)c1-c1c(N)c(C(N)=O)cc2nccnc12` [Compound 82, 7-Amino-8-(3-hydroxy-2,6-dimethylphenyl)quinoxaline-6-carboxamide], the IC50 at PKMYT1 is under 50 nM; in test [1] (Homo sapiens, HCC1806, 4 h) it was 50 to 500 nM.

`Cc1ccc(O)c(C)c1-c1c(N)c(C(N)=O)nc2cc(F)ccc12` [Compound 43, 3-Amino-7-fluoro-4-(3-hydroxy-2,6-dimethylphenyl)quinoline-2-carboxamide]: the IC50 lay within 50 to 500 nM at PKMYT1 and 1000 to 5000 nM in test [1] (Homo sapiens, HCC1806, 4 h).

Take `COc1nc2c(-c3cccc(O)c3C)c(N)c(C(N)=O)cc2nc1C` (atropisomer, axis not shown) [Compound 218]: the figures for the IC50 (on PKMYT1; in test [1] (4 hours)) were under 50 nM and 500 to 1000 nM, respectively.

In the case of `Cc1c(Cl)cncc1C1=c2ncccc2=NC(C(N)=O)C1N` (stereo not shown) [Compound 239], the IC50 (at PKMYT1; in test [1] (4 hours)) was at least 5000 nM in each case.

Turning to `Cc1c(O)cncc1-c1c(N)c(C(N)=O)nc2cccnc12` [Compound 155], the IC50 was in the range of 50 to 500 nM at PKMYT1 and 500 to 1000 nM in test [1] (Homo sapiens, HCC1806, 4 h).

Turning to `Cc1c(O)cccc1-c1c(N)c(C(N)=O)cc2nccnc12` (single isomer, unassigned) [Compound 87, (P)-7-Amino-8-(3-hydroxy-2-methylphenyl)quinoxaline-6-carboxamide], the IC50 at PKMYT1 was under 50 nM; in test [1] (4 hours), 50 to 500 nM.

For `Cc1cc(O)c(C)c(-c2c(N)c(C(N)=O)nc3cccnc23)c1` (atropisomer, axis not shown) [Compound 286], the IC50 on PKMYT1 was 500 to 1000 nM; in test [1] (4 hours), at least 5000 nM.

Consider `Cc1ccc(O)c(C)c1-c1c(N)c(C(N)=O)cc2cccnc12` (single isomer, unassigned) [Compound 66, (P)-7-amino-8-(3-hydroxy-2,6-dimethyl-phenyl)quinoline-6-carboxamide], for which the values for the IC50 (at PKMYT1; in test [1] (4 hours)) were under 50 nM and 50 to 500 nM, respectively.

With `NC(=O)c1cc2nccnc2c(-c2cc(O)cnc2Cl)c1N` (atropisomer, axis not shown) [Compound 163], the results for the IC50 (at PKMYT1; in test [1] (4 hours)) were 1000 to 5000 nM and at least 5000 nM, respectively.

As to `NC(=O)c1nc2cccnc2c(-c2cncc3sccc23)c1N` [Compound 230], the IC50 lay within 50 to 500 nM on PKMYT1 and 1000 to 5000 nM in test [1] (Homo sapiens, HCC1806, 4 h).

Take `Cc1ccc(O)c(C)c1-c1c(N)c(C(N)=O)cc2nccnc12` (single isomer, unassigned) [Compound 85, (M)-7-amino-8-(3-hydroxy-2,6-dimethylphenyl)quinoxaline-6-carboxamide]: the values for the IC50 (on PKMYT1; in test [1] (4 hours)) were 1000 to 5000 nM and at least 5000 nM, respectively.

In the case of `Cc1ccc(O)c(C)c1-c1c(N)c(C(N)=O)nc2ccc(F)cc12` [Compound 20, 3-Amino-6-fluoro-4-(3-hydroxy-2,6-dimethylphenyl)quinoline-2-carboxamide], the IC50 at PKMYT1 was 50 to 500 nM; in test [1] (4 hours) it was 1000 to 5000 nM.

Turning to `COc1ccc2nc(C(N)=O)c(N)c(-c3c(C)ccc(O)c3C)c2c1` [Compound 48, 3-Amino-4-(3-hydroxy-2,6-dimethylphenyl)-6-methoxyquinoline-2-carboxamide], the 50% inhibitory concentration (IC50) on PKMYT1 was 50 to 500 nM; in test [1] (Homo sapiens, HCC1806, 4 h) it was 50 to 500 nM.

Turning to `Cc1c(O)cccc1-c1c(N)c(C(N)=O)nc2nccnc12` [Compound 11, 7-Amino-8-(3-hydroxy-2-methylphenyl)pyrido[2,3-b]pyrazine-6-carboxamide], the IC50 is under 50 nM at PKMYT1 and 50 to 500 nM in test [1] (Homo sapiens, HCC1806, 4 h).

Regarding `NC(=O)c1cc2nccnc2c(-c2cncc(O)c2)c1N` [Compound 145], the IC50 on PKMYT1 is 50 to 500 nM; in test [1] (Homo sapiens, HCC1806, 4 h) it was at least 5000 nM.

`NC(=O)c1nc2cccnc2c(-c2cncc(Cl)c2Cl)c1N` [Compound 258]: the IC50 at PKMYT1 is under 50 nM; in test [1] (Homo sapiens, HCC1806, 4 h), 50 to 500 nM.

For `Cc1cnc2cc(C(N)=O)c(N)c(-c3c(C)ccc(O)c3C)c2n1` (atropisomer, axis not shown) [Compound 192], the IC50 (at PKMYT1; in test [1] (4 hours)) was at least 5000 nM throughout.

Consider `COc1ncncc1-c1c(N)c(C(N)=O)nc2cccnc12` [Compound 231], for which the IC50 on PKMYT1 is 500 to 1000 nM; in test [1] (Homo sapiens, HCC1806, 4 h), at least 5000 nM.

In the case of `Cc1c(O)cccc1-c1c(N)c(C(N)=O)cc2ncc(C(F)(F)F)nc12` (single isomer, unassigned) [Compound 124, (P)-7-Amino-8-(3-hydroxy-2-methylphenyl)-2-(trifluoromethyl)quinoxaline-6-carboxamide], the figures for the IC50 (on PKMYT1; in test [1] (4 hours)) were under 50 nM and 50 to 500 nM, respectively.

For the molecule `Cc1c(O)cccc1-c1c(N)c(C(N)=O)nc2cc(C(F)(F)F)cnc12` [Compound 161], the concentration for half-maximal inhibition (IC50) on PKMYT1 is under 50 nM; in test [1] (4 hours) it was 50 to 500 nM.

As for `Cc1ncccc1-c1c(N)c(C(N)=O)nc2cccnc12` [Compound 207], the IC50 was at least 5000 nM at PKMYT1 and at least 5000 nM in test [1] (Homo sapiens, HCC1806, 4 h).

Consider `Cc1ccc(O)cc1-c1c(N)c(C(N)=O)cc2nccnc12` (atropisomer, axis not shown; (M)) [Compound 116, (M)-7-Amino-8-(5-hydroxy-2-methylphenyl)quinoxaline-6-carboxamide], for which the IC50 at PKMYT1 fell in the range of 50 to 500 nM; in test [1] (4 hours), 500 to 1000 nM.

In the case of `Cc1cc(O)c(C)c(-c2c(N)c(C(N)=O)nc3cccnc23)c1` (atropisomer, axis not shown) [Compound 285], the IC50 is at least 5000 nM on PKMYT1 and at least 5000 nM in test [1] (Homo sapiens, HCC1806, 4 h).

As to `COc1cccc(-c2c(N)c(C(N)=O)nc3cccnc23)c1C` [Compound 1, 3-Amino-4-(3-methoxy-2-methylphenyl)-1,5-naphthyridine-2-carboxamide], the 50% inhibitory concentration (IC50) at PKMYT1 is at least 5000 nM; in test [1] (Homo sapiens, HCC1806, 4 h) it was at least 5000 nM.
